Measured values: patent publication US9216991B2 (Ares Trading S.A., priority 2012, dated 2015)
Structures can show the parent of a compound that is named as a salt.

Tests used:
IRAK4 = biological target: T1, IRAK4 (Homo sapiens, UniProt Q9NWZ3); assay: IRAK4 Enzymatic Assay; format: biochemical; conditions: His-TEV-IRAK4 20 ng/well, ATP 2 μM, STK1-biotin peptide 300 nM, 3 hours at 30° C., FlashPlate radioactivity
T1 construct: His (N); TEV cleavage site (N)
T1 sequence (Q9NWZ3 1-460): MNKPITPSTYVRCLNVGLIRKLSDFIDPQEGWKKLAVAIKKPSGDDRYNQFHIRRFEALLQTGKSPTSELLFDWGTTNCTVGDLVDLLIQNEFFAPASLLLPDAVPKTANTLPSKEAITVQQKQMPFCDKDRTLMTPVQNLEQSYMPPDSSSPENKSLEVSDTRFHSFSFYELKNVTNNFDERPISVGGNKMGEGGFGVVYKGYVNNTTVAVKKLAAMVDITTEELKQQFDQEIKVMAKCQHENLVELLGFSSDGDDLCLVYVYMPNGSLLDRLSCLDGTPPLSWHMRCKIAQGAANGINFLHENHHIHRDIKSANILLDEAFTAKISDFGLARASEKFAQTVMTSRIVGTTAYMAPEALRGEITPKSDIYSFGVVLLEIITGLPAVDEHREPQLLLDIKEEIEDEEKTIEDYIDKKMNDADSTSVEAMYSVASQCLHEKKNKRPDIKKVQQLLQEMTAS
In short: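 Recombinant His-TEV-tagged IRAK4 (20 ng/well) phosphorylates biotinylated STK1 peptide (300 nM) with 2 μM ATP plus [^33P]ATP, 3 h at 30 °C in pH 7.0 HEPES buffer with MgCl2 and MnCl2; compounds tested 20 μM to 1 nM. Reaction stopped with EDTA; incorporated radioactivity counted on streptavidin FlashPlates.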

melting point | IC50 (IRAK4) | SMILES
262 to 265.8 °C | < 100 nM | Cn1cc(-c2cccc(-c3ncc(-c4cnn([C@H]5CC[C@]6(CC5)CNC(=O)C6)c4)cn3)c2)cn1 [Example 287, cis-8-(4-(2-(3-(1-methyl-1H-pyrazol-4-yl)phenyl)pyrimidin-5-yl)-1H-pyrazol-1-yl)-2-azaspiro[4.5]decan-3-one]
255 to 258.7 °C | < 100 nM | Cn1cc(-c2cccc(-c3ncc(-c4cnn([C@H]5CC[C@@]6(CC5)CNC(=O)C6)c4)cn3)c2)cn1 [Example 286, trans-8-(4-{2-[3-(1-Methyl-1H-pyrazol-4-yl)-phenyl]-pyrimidin-5-yl}-pyrazol-1-yl)-2-aza-spiro[4.5]decan-3-one]
198 to 200 °C | 100 to 1000 nM | Cn1cc(-c2cccc(-c3ncc(-c4cnn(CC(=O)N5CCCC(O)C5)c4)cn3)c2)cn1 (centres unmarked) [Example 52, 1-(3-Hydroxy-piperidin-1-I)-2-(4-{2-[3-(1-methyl-1H-pyrazol-4-yl)-phenyl]-pyrimidin-5-yl}-pyrazol-1-yl)-ethanone]
175.8 to 180.6 °C | < 100 nM | Cn1cc(-c2cccc(-c3ncc(-c4cnn([C@H]5CCCNC5)c4)cn3)c2)cn1 [Example 283, 2-[3-(1-Methyl-1H-pyrazol-4-yl)-phenyl]-5-((S)-1-piperidin-3-yl-1H-pyrazol-4-yl)-pyrimidine]
237 to 238 °C | 100 to 1000 nM | Cn1cc(-c2cccc(-c3ncc(-c4cnn(CC(=O)N5CCC(O)C5)c4)cn3)c2)cn1 (centres unmarked) [Example 74, 1-(3-Hydroxy-pyrrolidin-1-yl)-2-(4-{2-[3-(1-methyl-1H-pyrazol-4-yl)-phenyl]-pyrimidin-5-yl}-pyrazol-1-yl)-ethanone]
50.3 to 55 °C | – | CN1CC2CC1CN2C(=O)[C@H]1CC[C@H](n2cc(-c3cnc(-c4cccc(-c5cnn(C)c5)c4)nc3)cn2)CC1 (stereo partly drawn) (as salt: hydrobromid) [Example 278, (5-Methyl-2,5-diaza-bicyclo[2.2.1]hept-2-yl)-trans-[4-(-4-{2-[3-(1-methyl-1H-pyrazol-4-yl)-phenyl]-pyrimidin-5-yl}-pyrazol-1-yl)-cyclohexyl]-methanone hydrobromide]
191.4 to 199.7 °C | 100 to 1000 nM | Cn1cc(-c2cccc(-c3ncc(-c4cnn([C@@H]5CC[C@@]6(CO)COC[C@@]6(O)C5)c4)cn3)c2)cn1 (single isomer, unassigned) [Example 281]
218.7 to 223.3 °C | < 100 nM | Cn1cc(-c2cccc(-c3ncc(-c4cnn([C@H]5CC[C@H](OCCO)CC5)c4)cn3)c2)cn1 [Example 277, Trans-2-[4-(-4-{2-[3-(1-Methyl-1H-pyrazol-4-yl)-phenyl]-pyrimidin-5-yl}-pyrazol-1-yl)-cyclohexyloxy]-ethanol]
234 to 236 °C | 100 to 1000 nM | Cn1cc(-c2cccc(-c3ncc(-c4cnn(CCO)c4)cn3)c2)cn1 [Example 23, 2-(4-{2-[3-(1-Methyl-1H-pyrazol-4-yl)-phenyl]-pyrimidin-5-yl}-pyrazol-1-yl)-ethanol]
177 to 181 °C | 100 to 1000 nM | Cn1cc(-c2cccc(-c3ncc(-c4cnn(CC(=O)N5CC(O)C5)c4)cn3)c2)cn1 [Example 73, 1-(3-Hydroxy-azetidin-1-yl)-2-(4-{2-[3-(1-methyl-1H-pyrazol-4-yl)-phenyl]-pyrimidin-5-yl}-pyrazol-1-yl)-ethanone]
247 to 250 °C | 100 to 1000 nM | Cn1cc(-c2cccc(-c3ncc(-c4cnn(C5CCS(=O)(=O)C5)c4)cn3)c2)cn1 (centres unmarked) [Example 219, 5-[1-(1,1-Dioxo-tetrahydro-1lambda6-thiophen-3-yl)-1H-pyrazol-4-yl]-2-[3-(1-methyl-1H-pyrazol-4-yl)-phenyl]-pyrimidine]
207.5 to 212 °C | 100 to 1000 nM | Cn1cc(-c2cccc(-c3ncc(-c4cnn([C@@H]5CCC[C@@H](O)C5)c4)cn3)c2)cn1 (relative stereo) [Example 290, Trans-3-(4-{2-[3-(1-Methyl-1H-pyrazol-4-yl)-phenyl]-pyrimidin-5-yl}-pyrazol-1-yl)-cyclohexanol]
199 to 200 °C | 100 to 1000 nM | Cn1cc(-c2cnc(-c3cccc(-c4cnn(C)c4)c3)nc2)cn1 [Example 32, 5-(1-Methyl-1H-pyrazol-4-yl)-2-[3-(1-methyl-1H-pyrazol-4-yl)-phenyl]-pyrimidine]
– | 100 to 1000 nM | Cc1cc(-c2cccc(-c3ncc(-c4cnn([C@H]5CCCS(=O)(=O)C5)c4)cn3)c2)cnn1 (single isomer, unassigned) [Example 240]
– | 100 to 1000 nM | COCCn1cc(-c2cnc(-c3cccc(-c4cnn(C)c4)c3)nc2)cn1 [Example 98, 5-[1-(2-Methoxy-ethyl)-1H-pyrazol-4-yl]-2-[3-(1-methyl-1H-pyrazol-4-yl)-phenyl]-pyrimidine]
– | < 100 nM | Cn1cc(-c2cccc(-c3ncc(-c4cnn([C@H]5CC[C@]6(CCC(=O)N6C)CC5)c4)cn3)c2)cn1 [Example 285, Cis-1-Methyl-8-(4-{2-[3-(1-methyl-1H-pyrazol-4-yl)-phenyl]-pyrimidin-5-yl}-pyrazol-1-yl)-1-aza-spiro[4.5]decan-2-one]
– | 1000 to 5000 nM | Cn1cc(-c2cccc(-c3ncc(-c4cnn(C5CCNCC5)c4)cn3)c2)nn1 [Example 72, 2-[3-(1-Methyl-1H-[1,2,3]triazol-4-yl)-phenyl]-5-(1-piperidin-4-yl-1H-pyrazol-4-yl)-pyrimidine hydrochloride]
– | 100 to 1000 nM | CO[C@@H]1COCCC1N1CCC(n2cc(-c3cnc(-c4cccc(-c5cnn(C)c5)c4)nc3)cn2)CC1 (stereo partly drawn) [Example 122, 5-{1-[1-((S)-3-Methoxy-tetrahydro-pyran-4-yl)-piperidin-4-yl]-1H-pyrazol-4-yl}-2-[3-(1-methyl-1H-pyrazol-4-yl)-phenyl]-pyrimidine]
– | < 100 nM | CN1CC2CC1CN2C(=O)[C@H]1CC[C@H](n2cc(-c3cnc(-c4cccc(-c5cnn(C)c5)c4)nc3)cn2)CC1 (stereo partly drawn) [Example 278, (5-Methyl-2,5-diaza-bicyclo[2.2.1]hept-2-yl)-trans-[4-(-4-{2-[3-(1-methyl-1H-pyrazol-4-yl)-phenyl]-pyrimidin-5-yl}-pyrazol-1-yl)-cyclohexyl]-methanone hydrobromide]
– | 100 to 1000 nM | C[C@@H]1C[C@H](n2cc(-c3cnc(-c4cccc(-c5cnn(C)c5)c4)nc3)cn2)CCN1 [Example 243, 5-[1-((2R,4R)-2-Methyl-piperidin-4-yl)-1H-pyrazol-4-yl]-2-[3-(1-methyl-1H-pyrazol-4-yl)-phenyl]-pyrimidine formic acid]
– | 1000 to 5000 nM | Cn1cc(-c2cccc(-c3ncc(-c4cnn(C5CCNCC5)c4)cn3)c2F)cn1 [Example 48, 2-[2-Fluoro-3-(1-methyl-1H-pyrazol-4-yl)-phenyl]-5-(1-piperidin-4-yl-1H-pyrazol-4-yl)-pyrimidine Formate]
– | 100 to 1000 nM | Cn1cc(-c2cccc(-c3ncc(-c4cnn([C@@H]5CCNC5)c4)cn3)c2)cn1 [Example 116, 2-[3-(1-Methyl-1H-pyrazol-4-yl)-phenyl]-5-((R)-1-pyrrolidin-3-yl-1H-pyrazol-4-yl)-pyrimidine]
– | 100 to 1000 nM | CN1CCC[C@H]1C(=O)N1CCC(n2cc(-c3cnc(-c4cccc(-c5cnn(C)c5)c4)nc3)cn2)CC1 [Example 123, [4-(4-{2-[3-(1-Methyl-1H-pyrazol-4-yl)-phenyl]-pyrimidin-5-yl}-pyrazol-1-yl)-piperidin-1-yl]-((S)-1-methyl-pyrrolidin-2-yl)-methanone]
– | 1000 to 5000 nM | Cn1cc(-c2cccc(-c3ncc(-c4cnn(CC(N)=O)c4)cn3)c2)cn1 [Example 49, 2-(4-{2-[3-(1-Methyl-1H-pyrazol-4-yl)-phenyl]-pyrimidin-5-yl}-pyrazol-1-yl)-acetamide]
– | 1000 to 5000 nM | Cn1cncc1-c1cccc(-c2ncc(-c3cnn(CC(=O)N4CCCC4)c3)cn2)c1 [Example 37, 2-(4-{2-[3-(3-Methyl-3H-imidazol-4-yl)-phenyl]-pyrimidin-5-yl}-pyrazol-1-yl)-1-pyrrolidin-1-yl-ethanone]
– | < 100 nM | CC(=O)N1CCC(n2cc(-c3cnc(-c4cccc(-c5cnn(C)c5)c4)nc3)cn2)C(F)C1 (stereo not drawn) [Example 263, Cis-1-[3-Fluoro-4-(4-{2-[3-(1-methyl-1H-pyrazol-4-yl)-phenyl]-pyrimidin-5-yl}-pyrazol-1-yl)-piperidin-1-yl]-ethanone]
– | 100 to 1000 nM | Cn1cc(-c2cccc(-c3ncc(-c4cnn(CCC5CCOCC5)c4)cn3)c2)cn1 [Example 69, 2-[3-(1-Methyl-1H-pyrazol-4-yl)-phenyl]-5-{1-[2-(tetrahydro-pyran-4-yl)-ethyl]-1H-pyrazol-4-yl}-pyrimidine]
– | 100 to 1000 nM | Nc1cc(-c2cccc(-c3ncc(-c4cnn(C5CCOCC5)c4)cn3)c2)ccn1 [Example 136, 4-(3-{5-[1-(Tetrahydro-pyran-4-yl)-1H-pyrazol-4-yl]-pyrimidin-2-yl}-phenyl)-pyridin-2-ylamine]
– | 100 to 1000 nM | Cn1cc(-c2cccc(-c3ncc(-c4cnn(C5CCSC5)c4)cn3)c2)cn1 (centres unmarked) [Example 216, 2-[3-(1-Methyl-1H-pyrazol-4-yl)-phenyl]-5-[1-(tetrahydro-thiophen-3-yl)-1H-pyrazol-4-yl]-pyrimidine]
